Experimental data taken from US20260042734A1, “HETEROCYCLIC RING-SUBSTITUTED AROMATIC COMPOUND, PREPARATION METHOD THEREFOR, AND USE THEREOF” (SHANGHAI HENLIUS BIOTECH, INC., priority 2023, published 2026).

What follows are compounds tested against human Kv1.3 (hKv1.3) channels (Homo sapiens (Human), UniProt P22001) (assay: Electrophysiological (whole-cell patch clamp) determination of inhibitory activity on Kv1.3 channels). Conditions: HEK293T cells expressing hKv1.3; Hill fit of peak current inhibition.
Type: cell-based
Description: Test Example 1: Determination of Inhibitory Activity of Compounds on Kv1.3 (hKv1.3) Channels
Electrophysiological Testing
Potassium currents were measured using HEK293T cells expressing human Kv1.3 (hKv1.3) channels.
Prior to the start of electrophysiological experiments, Kv1.3 cell lines should be maintained within 70% of the maximum density in the logarithmic growth phase. All reagents should be pre-warmed to 37° C. before use. • 1) Aspirate the spent medium from the 6 cm culture dish. • 2) Add 1 mL of PBS, gently rock the dish to rinse the bottom, and then remove the PBS. • 3) Add 1 mL of trypsin, and gently rock the dish to ensure the trypsin covers all the cells. • 4) Incubate at 37° C. for 2-3 minutes, and then gently pipette the cells to suspend the adherent cells. • 5) Transfer the cell suspension to a new centrifuge tube and centrifuge at 1000 rpm for 5 minutes. Adjust the cell concentration to 2×10^3 cells/mL, and then seed 300 μL of the cell suspension into each well of a 24-well plate containing cell climbing slides. Perform patch clamp experiments after the cells adhered properly.
The intracellular and extracellular solutions used were designed to mimic the cell physiological ionic composition.
Kv1.3 extracellular solution: 137 mM NaCl, 1 mM MgCl2·6H2O, 4 mM KCl, 1.8 mM CaCl2·2H2O, 10 mM D-Glucose, 10 mM HEPES, pH adjusted to 7.4 with NaOH.
Kv1.3 intracellular solution: 140 mM KCl, 10 mM EGTA, 5 mM MgCl2·6H2O, 10 mM HEPES, […], pH adjusted to 7.2 with KOH.
Test Compound Dissolution
• 1) The test compound was dissolved in DMSO to prepare a 30 mM stock solution. • 2) The stock solution of the test compound was serially diluted with DMSO to obtain secondary stock solutions at concentrations of 300 μM, 100 μM, 30 μM, 10 μM, and 3 μM. • 3) 10 μL of each secondary stock solution was diluted into 10 mL of extracellular solution to achieve final concentrations of 300 nM, 100 nM, 30 nM, 10 nM, and 3 nM for electrophysiological testing.
Kv1.3 potassium current data were collected and stored on a computer using Patchmaster software via an EPC-10 amplifier. • 1) The cell climbing slide was removed from the cell culture dish using forceps, immersed with extracellular solution, and placed into the bath chamber on the stage of an inverted microscope. • 2) Glass micropipettes were pulled using a P-1000 micropipette puller, filled one-third of their volume with intracellular solution, and then mounted onto an electrode holder. • 3) Using a motorized micromanipulator (Scientifica-Double 1U), the recording electrode was brought into contact with the cell surface. […] The positive pressure was removed, and a negative pressure of 0.5 cm H2O was applied. It was observed that the sealing resistance increased rapidly until it reached the gigaseal. When the sealing resistance between the recording electrode and the cell membrane was >1 GΩ, negative pressure was applied to rupture the membrane to form the whole-cell recording mode. After the ruptured membrane stabilized, the membrane capacitance (Cs) and series resistance (Rs) were compensated. • 4) Stimulation procedure: the cell was voltage-clamped at −80 mV, depolarized to 40 mV for a duration of 200 ms, and then repolarized to −80 mV. Currents were recorded every 10 s. • 5) Kv1.3 potassium channel currents were recorded at room temperature prior to drug application. After the control current value reached a steady state (indicated by overlapping of the four most consecutive current traces), cumulative drug application was performed. The negative control (0.1% DMSO) was applied first, followed by […] of the drugs.
Raw Kv1.3 current peak data were extracted from PatchMaster software. The current inhibition rate was calculated as follows: Peak current inhibition rate=((1−(Peak current compound)/(Peak current vehicle))). […]

human Kv1.3 (hKv1.3) channels, sequence (P22001 whole entry): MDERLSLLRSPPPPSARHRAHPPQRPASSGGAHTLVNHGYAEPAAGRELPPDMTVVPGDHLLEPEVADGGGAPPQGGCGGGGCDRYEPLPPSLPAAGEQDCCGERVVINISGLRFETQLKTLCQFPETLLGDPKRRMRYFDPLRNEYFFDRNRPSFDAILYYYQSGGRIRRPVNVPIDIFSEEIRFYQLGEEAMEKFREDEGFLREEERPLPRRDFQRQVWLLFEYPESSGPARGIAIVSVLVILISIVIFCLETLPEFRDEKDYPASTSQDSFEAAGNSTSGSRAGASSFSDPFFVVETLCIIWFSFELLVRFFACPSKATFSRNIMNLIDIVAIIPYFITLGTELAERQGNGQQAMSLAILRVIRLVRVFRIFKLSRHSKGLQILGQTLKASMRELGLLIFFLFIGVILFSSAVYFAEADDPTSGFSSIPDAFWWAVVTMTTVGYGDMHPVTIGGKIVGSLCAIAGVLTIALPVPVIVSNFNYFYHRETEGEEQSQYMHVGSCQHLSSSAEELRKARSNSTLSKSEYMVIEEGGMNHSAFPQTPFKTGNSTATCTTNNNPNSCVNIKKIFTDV

IC50 [µM]	Compound
0.03 to 0.1	OC[C@@H](O)CN1CC(c2c(O)ccc(Cl)c2Cl)CC1=S (mixture of isomers) [Compound 131, rac-4-(2,3-dichloro-6-hydroxyphenyl)-1-((S)-2,3-dihydroxypropyl)pyrrolidine-2-thione]

Same assay, conditions: HEK-293T; compound concentration 10 nM; HEK293T cells expressing hKv1.3; peak current inhibition; read-out: 10 nM inhibition rate (Kv1.3)

inhibition at 0.01 µM [%]	Compound
25 to 50	OCCCN1CC(c2c(O)ccc(Cl)c2Cl)CC1=S (racemic) [Compound 1, rac-4-(2,3-Dichloro-6-hydroxyphenyl)-1-(3-hydroxypropyl)pyrrolidine-2-thione]
50 to 75	NCCCN1CC(c2c(O)ccc(Cl)c2Cl)CC1=S (racemic) [Compound 2, rac-1-(3-Aminopropyl)-4-(2,3-dichloro-6-hydroxyphenyl)pyrrolidine-2-thione]
0 to 5	ONCCCN1CC(c2c(O)ccc(Cl)c2Cl)CC1=S (racemic) [Compound 26, rac-4-(2,3-Dichloro-6-hydroxyphenyl)-1-(3-(hydroxyamino)propyl)pyrrolidine-2-thione]
25 to 50	Oc1ccc(Cl)c(Cl)c1C1CC(=S)N(C2CC3(CNC3)C2)C1 (racemic) [Compound 34, rac-4-(2,3-Dichloro-6-hydroxyphenyl)-1-(2-azaspiro[3.3]heptan-6-yl)pyrrolidine-2-thione]
< 0	Oc1ccc(Cl)c(Cl)c1C1CC(=S)N(CCn2cccn2)C1 (racemic) [Compound 37, rac-1-(2-(1H-Pyrazol-1-yl)ethyl)-4-(2,3-dichloro-6-hydroxyphenyl)pyrrolidine-2-thione]
50 to 75	Cn1cc(N2CC(c3c(O)ccc(Cl)c3Cl)CC2=S)cn1 (racemic) [Compound 40, 4-(2,3-dichloro-6-hydroxyphenyl)-1-(1-methyl-1H-pyrazol-4-yl)pyrrolidine-2-thione]
25 to 50	C=Cn1cc(N2CC(c3c(O)ccc(Cl)c3Cl)CC2=S)cn1 (racemic) [Compound 66, rac-4-(2,3-dichloro-6-hydroxyphenyl)-1-(1-vinyl-1H-pyrazol-4-yl)pyrrolidine-2-thione]
25 to 50	CS(=O)(=O)n1cc(N2CC(c3c(O)ccc(Cl)c3Cl)CC2=S)cn1 (racemic) [Compound 68, rac-4-(2,3-dichloro-6-hydroxyphenyl)-1-(1-(methylsulfonyl)-1H-pyrazol-4-yl)pyrrolidine-2-thione]
50 to 75	CS(=O)(=O)n1cc(N2CC(c3c(O)ccc(Cl)c3Cl)CC2=O)cn1 (racemic) [Compound 92, 4-(2,3-Dichloro-6-hydroxyphenyl)-1-(1-(methylsulfonyl)-1H-pyrazol-4-yl)pyrrolidin-2-one]
≥ 75	O=C1CC(c2c(O)ccc(Cl)c2Cl)CN1CCCNO (racemic) [Compound 103, 4-(2,3-Dichloro-6-hydroxyphenyl)-1-(3-(hydroxyamino)propyl)pyrrolidin-2-one]
25 to 50	Oc1ccc(Cl)c(Cl)c1C1CC(=S)N([C@H]2C[C@H](O)C2)C1 (mixture of isomers) [Compound 124, rac-4-(2,3-dichloro-6-hydroxyphenyl)-1-((1r,3r)-3-hydroxycyclobutyl)pyrrolidine-2-thione]
0 to 5	OCC1(CN2CC(c3c(O)ccc(Cl)c3Cl)CC2=S)CC1 (racemic) [Compound 125, rac-4-(2,3-Dichloro-6-hydroxyphenyl)-1-((1-(hydroxymethyl)cyclopropyl)methyl)pyrrolidine-2-thione]
0 to 5	OC[C@H]1C[C@H](N2CC(c3c(O)ccc(Cl)c3Cl)CC2=S)C1 (mixture of isomers) [Compound 126, rac-4-(2,3-dichloro-6-hydroxyphenyl)-1-((1r,3r)-3-(hydroxymethyl)cyclobutyl)pyrrolidine-2-thione]
0 to 5	OC[C@H]1C[C@@H](N2CC(c3c(O)ccc(Cl)c3Cl)CC2=S)C1 (mixture of isomers) [Compound 127, rac-4-(2,3-dichloro-6-hydroxyphenyl)-1-((1s,3s)-3-(hydroxymethyl)cyclobutyl)pyrrolidine-2-thione]
0 to 5	Oc1ccc(Cl)c(Cl)c1C1CC(=S)N(C[C@H]2C[C@@H](O)C2)C1 (mixture of isomers) [Compound 128, rac-4-(2,3-dichloro-6-hydroxyphenyl)-1-(((1s,3s)-3-hydroxycyclobutyl)methyl)pyrrolidine-2-thione]
0 to 5	Oc1ccc(Cl)c(Cl)c1C1CC(=S)N(C[C@H]2C[C@H](O)C2)C1 (mixture of isomers) [Compound 129, rac-4-(2,3-dichloro-6-hydroxyphenyl)-1-(((1r,3r)-3-hydroxycyclobutyl)methyl)pyrrolidine-2-thione]
25 to 50	OCCCCN1CC(c2c(O)ccc(Cl)c2Cl)CC1=S (racemic) [Compound 130, rac-4-(2,3-dichloro-6-hydroxyphenyl)-1-(4-hydroxybutyl)pyrrolidine-2-thione]
50 to 75	OC[C@@H](O)CN1CC(c2c(O)ccc(Cl)c2Cl)CC1=S (mixture of isomers) [Compound 131, rac-4-(2,3-dichloro-6-hydroxyphenyl)-1-((S)-2,3-dihydroxypropyl)pyrrolidine-2-thione]
0 to 5	OCCCN1CC(c2c(O)ccc(F)c2Cl)CC1=S (racemic) [Compound 148, rac-4-(2-chloro-3-fluoro-6-hydroxyphenyl)-1-(3-hydroxypropyl)pyrrolidine-2-thione]
< 0	OCCCN1CC(c2c(O)ccc(Cl)c2F)CC1=S (racemic) [Compound 149, rac-4-(3-chloro-2-fluoro-6-hydroxyphenyl)-1-(3-hydroxypropyl)pyrrolidine-2-thione]
50 to 75	Oc1ccc(Cl)c(Cl)c1C1CC(=S)N(c2cnn(C3CC3)c2)C1 (racemic) [Compound 150, rac-1-(1-cyclopropyl-1H-pyrazol-4-yl)-4-(2,3-dichloro-6-hydroxyphenyl)pyrrolidine-2-thione]
25 to 50	Oc1ccc(Cl)c(Cl)c1C1CC(=S)N(c2cnn3c2CCC3)C1 (racemic) [Compound 159, rac-4-(2,3-dichloro-6-hydroxyphenyl)-1-(5,6-dihydro-4H-pyrrolo[1,2-b]pyrazol-3-yl)pyrrolidine-2-thione]
25 to 50	O=C1CC(c2c(O)ccc(Cl)c2Cl)CN1c1cnn2c1CCC2 (racemic) [Compound 160, rac-4-(2,3-dichloro-6-hydroxyphenyl)-1-(5,6-dihydro-4H-pyrrolo[1,2-b]pyrazol-3-yl)pyrrolidin-2-one]
50 to 75	Oc1ccc(Cl)c(Cl)c1C1CC(=S)N(c2cnn3c2OCC3)C1 (racemic) [Compound 161, rac-4-(2,3-dichloro-6-hydroxyphenyl)-1-(2,3-dihydropyrazolo[5,1-b]oxazol-7-yl)pyrrolidine-2-thione]
0 to 5	Oc1ccc(Cl)c(Cl)c1C1CC(=S)N(c2cnn3c2OCCC3)C1 (racemic) [Compound 162, rac-4-(2,3-dichloro-6-hydroxyphenyl)-1-(6,7-dihydro-5H-pyrazolo[5,1-b][1,3]oxazin-3-yl)pyrrolidine-2-thione]
25 to 50	Oc1ccc(Cl)c(Cl)c1C1CC(=S)N(c2cnn3c2COCC3)C1 (racemic) [Compound 163, rac-4-(2,3-dichloro-6-hydroxyphenyl)-1-(6,7-dihydro-4H-pyrazolo[5,1-c][1,4]oxazin-3-yl)pyrrolidine-2-thione]
50 to 75	Oc1ccc(Cl)c(Cl)c1C1CC(=S)N(c2cnn(C3COC3)c2)C1 (racemic) [Compound 164, rac-4-(2,3-dichloro-6-hydroxyphenyl)-1-(1-(oxetan-3-yl)-1H-pyrazol-4-yl)pyrrolidine-2-thione]

Same assay, conditions: compound concentration 10 nM; HEK293T cells expressing hKv1.3; peak current inhibition

10 nM inhibition rate (Kv1.3)	Compound
A (A = inhibition ≥75%)	4-(2,3-Dichloro-6-hydroxyphenyl)-1-(2,2-difluoro-3-hydroxypropyl)pyrrolidine-2-thione [Compound 121]
